Source: patent US20230357272A1, “OCTAHYDROPYRAZINODIAZANAPHTHYRIDINE DIONE COMPOUNDS” (MEDSHINE DISCOVERY INC., priority 2020, published 2023)
pIC50: −log10 of the molar value. Read-outs that look alike come from different tables or passages of the source.

Assays:
[1] = system: H358 human non-small cell lung cancer cell line; assay: Anti-tumor activity test on in vivo H358 xenograft tumor model; set-up: species or system Female Balb/c nude mice; conditions: for T/C / TGI: 28 days; for mean tumor volume: 28 days after administration
From the text: Human non-small cell lung cancer H358 was used to investigate the tumor-inhibitory effect of the compound to be tested alone in an in vivo tumor model.
Female Balb/c nude mice were subcutaneously inoculated with the H358 human non-small cell lung cancer cell line, randomly grouped on the 6th day after inoculation according to tumor size and animal body weight, and administered as described below.
Vehicle control group: The administration was started in the afternoon of the grouping day, once a day, and the vehicle (10% DMSO/60% PEG400/30% deionized water) was intragastrically administered at a dose of 0.1 mL/10 g body weight for 28 consecutive days.
Administration group: The administration was started in the afternoon of the grouping day, once a day, and 3 groups were intragastrically administered with compound 1D (10% DMSO/60% PEG400/30% deionized water) at the doses of 1 mg/kg, 3 mg/kg and 10 mg/kg body weight, respectively, for 28 consecutive days.
During the experiment, the mice were weighed twice a week, and the tumor volume was measured (tumor volume was calculated according to the formula of length×width^2/2). The tumor inhibition rate TGI (%) was calculated according to the formula TGI (%)=[(1−mean tumor volume at the end of administration of a treatment group−mean tumor volume at the time of group administration of the treatment group)/(mean tumor volume at the end of treatment of vehicle control group−mean tumor volume at the time of group administration of vehicle control group)]×100%.
The relative tumor volume was calculated as RTV=TVn/TV1×100%
Where TV1 was the tumor volume on the day of group administration, and TVn was the tumor volume on the day of measurement.
Relative tumor proliferation rate (T/C %)=RTVt/RTVc×100%
Where RTVt was the mean relative tumor volume of the treatment group, and RTVc was the mean relative tumor volume of the vehicle control group.

NCI-H358 cells = assay: Anti-proliferation experiment of H358 cells (CellTiter-Glo); type: cell-based; conditions: Homo sapiens, 120 h, 5 days
Experimental: RPMI-1640 culture medium, penicillin/streptomycin antibiotics purchased from Wisent, and fetal bovine serum purchased from Biosera. CellTiter-Glo (chemiluminescence detection reagent for cell viability) reagent purchased from Promega. NCI-H358 cell line purchased from the Cell Bank of the Chinese Academy of Sciences. Nivo multi-label analyzer (PerkinElmer).
NCI-H358 cells were seeded in a white 96-well plate with 80 μL of cell suspension per well, which contained 4000 NCI-H358 cells. The cell plate was incubated overnight in a carbon dioxide incubator.
The compounds to be tested were diluted 3-fold with a row gun to the ninth concentration, that is, from 2 mM to 304 nM, and a double-duplication experiment was set up. 78 μL of culture medium was added to a middle plate, and then 2 μL of gradient diluted compound per well was transferred to the middle plate according to the corresponding position. After being thoroughly mixed, 20 μL per well was transferred to the cell plate. The concentration range of the compound transferred to the cell plate was 10 μM to 1.52 nM. The cell plate was placed in the carbon dioxide incubator for 5 days. Another cell plate was prepared, and the signal value was read as the maximum value (Max value in the equation below) on the day of administration to participate in data analysis. 25 μL of cell viability chemiluminescence detection reagent was added to each well of the cell plate, and incubated at room temperature for 10 minutes to stabilize the luminescence signal. A multi-label analyzer was used for reading.
25 μL of cell viability chemiluminescence detection reagent was added to each well of the cell plate, and incubated at room temperature for 10 minutes to stabilize the luminescence signal. A multi-label analyzer was used for reading.
Using the equation (Sample−Min)/(Max−Min)*100% to convert the raw data into inhibition rate, and the value of IC50 might be obtained by curve fitting with four parameters (obtained by “log (inhibitor) vs. response—Variable slope” mode in GraphPad Prism). Table 1 provides the inhibitory activity of the compounds of the present disclosure on the proliferation of NCI-H358 cells.

[2] = Pharmacokinetic study of female BALB/c nude mice (plasma and tumor); type: in vivo; conditions: for concentration at 1 h / concentration at 4 h / concentration at 8 h: oral, read-out: Mean drug concentration; for Kp: tumor/plasma, read-out: AUC ratio = tumor AUC0-last/plasma AUC0-last
Experimental: This experiment was a pharmacokinetic study of female BALB/c nude mice after oral administration of compound 1D. The experiment was divided into three groups, which were intragastrically administered with 1, 3 and 10 mg/kg of compound 1D, respectively. Animals in each group were divided into two batches, and plasma and tumor tissue samples were collected at different time points after administration. The collection time points of the plasma samples from each group of animals were: 0.083, 0.25, 0.5, 1, 2, 4, 6 and 8 hours, respectively, and the collection time points of tumor tissue samples were 1, 4 and 8 hours, respectively. At the corresponding sample collection time point after administration, plasma was collected, and tumor tissue was dissected and weighed. The plasma was stored at −80° C., and the tumor tissue was stored in a cryopreservation tube and quickly frozen in liquid nitrogen. Cross-collected plasma samples were used to calculate the mean concentration of the corresponding time points in each group for the calculation of PK parameters.

[3] = 1 mg/kg intragastric once a day
[4] = 3 mg/kg intragastric once a day
[5] = 10 mg/kg intragastric once a day
[6] = female, BALB/c nude, mouse, plasma, 1 mg/kg intragastric
[7] = female, BALB/c nude, mouse, plasma, 3 mg/kg intragastric
[8] = female, BALB/c nude, mouse, plasma, 10 mg/kg intragastric
[9] = female, BALB/c nude, mouse, tumor, 1 mg/kg intragastric
[10] = female, BALB/c nude, mouse, tumor, 3 mg/kg intragastric
[11] = female, BALB/c nude, mouse, tumor, 10 mg/kg intragastric
[12] = female, BALB/c nude, mouse, po, plasma, 1 mg/kg intragastric
[13] = female, BALB/c nude, mouse, po, plasma, 3 mg/kg intragastric
[14] = female, BALB/c nude, mouse, po, plasma, 10 mg/kg intragastric
[15] = female, BALB/c nude, mouse, po, tumor, 3 mg/kg intragastric
[16] = female, BALB/c nude, mouse, po, tumor, 10 mg/kg intragastric

pIC50 (NCI-H358 cells): 9.04
concentration at 1 h [2, 6]: 22.5 nM
concentration at 4 h [2, 6]: 3.58 nM
concentration at 8 h [2, 6]: 1.22 nM
concentration at 1 h [2, 7]: 157 nM
concentration at 4 h [2, 7]: 11.5 nM
concentration at 8 h [2, 7]: 4.13 nM
concentration at 1 h [2, 8]: 285 nM
concentration at 4 h [2, 8]: 54.8 nM
concentration at 8 h [2, 8]: 30.6 nM
concentration at 1 h [2, 9]: 10.4 nM
concentration at 4 h [2, 9]: 2.04 nM
concentration at 1 h [2, 10]: 136 nM
concentration at 4 h [2, 10]: 9.78 nM
concentration at 8 h [2, 10]: 2.78 nM
concentration at 1 h [2, 11]: 203 nM
concentration at 4 h [2, 11]: 37.9 nM
concentration at 8 h [2, 11]: 20.8 nM
AUC(0-t) [2, 12]: 0.0544 µM·h
Tmax [2, 12]: 15 min
half-life [2, 12]: 154 min
Cmax ([2]; female, BALB/c nude, mouse, po, plasma, 1 mg/kg intragastric, read-out: Cmax): 40.8 nM
AUC(0-t) [2, 13]: 0.287 µM·h
Tmax [2, 13]: 30 min
half-life [2, 13]: 132 min
Cmax ([2]; female, BALB/c nude, mouse, po, plasma, 3 mg/kg intragastric, read-out: Cmax): 191 nM
AUC(0-t) [2, 14]: 0.84 µM·h
Tmax [2, 14]: 15 min
half-life [2, 14]: 119 min
Cmax ([2]; female, BALB/c nude, mouse, po, plasma, 10 mg/kg intragastric, read-out: Cmax): 348 nM
Tmax [2, 15]: 60 min
half-life [2, 15]: 76.8 min
Tmax [2, 16]: 60 min
half-life [2, 16]: 131 min
Kp ([2]; female, BALB/c nude, mouse, po, 3 mg/kg intragastric): 0.815
Kp ([2]; female, BALB/c nude, mouse, po, 10 mg/kg intragastric): 0.608
Tlast ([2]; plasma, 1 mg/kg intragastric): 8.00 h
Tlast ([2]; plasma, 3 mg/kg intragastric): 8.00 h
Tlast ([2]; plasma, 10 mg/kg intragastric): 8.00 h
AUC0-last ([2]; tumor, 3 mg/kg intragastric): 234 nmol·h/kg
Cmax ([2]; tumor, 3 mg/kg intragastric): 136 nmol/kg
Tlast ([2]; tumor, 3 mg/kg intragastric): 8.00 h
AUC0-last ([2]; tumor, 10 mg/kg intragastric): 511 nmol·h/kg
Cmax ([2]; tumor, 10 mg/kg intragastric): 203 nmol/kg
Tlast ([2]; tumor, 10 mg/kg intragastric): 8.00 h
SMILES: C=CC(=O)N1CCN2c3c(c(=O)n(-c4c(C)ccnc4C(C)C)c4c(=O)n(-c5c(N)c(Cl)cc(Cl)c5F)c(C(F)(F)F)cc34)OCC[C@H]2C1 [Compound 1D]
T/C [1, 3]: 51.35%
TGI [1, 3]: 58.78%
mean tumor volume [1, 3]: 341.36 mm^3
T/C [1, 4]: 27.59%
TGI [1, 4]: 84.17%
mean tumor volume [1, 4]: 199.4 mm^3
T/C [1, 5]: 5.76%
TGI [1, 5]: 113.19%
mean tumor volume [1, 5]: 37.5 mm^3
